Tests used:
Test in all cases: relative viability (nuclei count vs DMSO), 5 days (fraction); higher = more cells survive
[1] = compound: CS(=O)(=O)c1ccc(C(=O)Nc2ccc(Cl)c(-c3ccccn3)c2)c(Cl)c1 [Vismodegib] + CS(=O)(=O)CCNCc1ccc(-c2ccc3ncnc(Nc4ccc(OCc5cccc(F)c5)c(Cl)c4)c3c2)o1 [Lapatinib] (partner 2 µM)
In short: (§1)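 Lung cancer cell lines in 1536-well plates got either a single drug or a fixed anchor-drug dose together with five library-drug doses (not always all listed) in √10 steps, by pin tool, on the day after seeding. Nuclei were counted after 5 days, and relative viability is the treated-to-vehicle ratio of nuclei counts. Values are medians of duplicate plates.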

[2] = compound: CS(=O)(=O)c1ccc(-c2cnc(N)c(C(=O)Nc3ccccc3)n2)cc1 [VE-821] + CCNC(=O)c1noc(-c2cc(C(C)C)c(O)cc2O)c1-c1ccc(CN2CCOCC2)cc1 [Luminespib] (partner 0.01 µM)
In short: as §1

[3] = compound: CS(=O)(=O)c1ccc(-c2cnc(N)c(C(=O)Nc3ccccc3)n2)cc1 [VE-821] + NC(=O)Nc1cc(-c2cccc(F)c2)sc1C(=O)N[C@H]1CCCNC1 [AZD7762] (partner 0.2 µM)
In short: as §1

[4] = compound: CS(=O)(=O)c1ccc(-c2cnc(N)c(C(=O)Nc3ccccc3)n2)cc1 [VE-821] + C[C@@H](Oc1cc(-c2cnn(C3CCNCC3)c2)cnc1N)c1c(Cl)ccc(F)c1Cl [Crizotinib] (partner 1 µM)
In short: as §1

Cell Line	relative viability ([1]; first compound 0.08 µM)	relative viability ([1]; first compound 0.253 µM)	relative viability ([1]; first compound 0.8 µM)	relative viability ([1]; first compound 2.53 µM)	relative viability ([1]; first compound 8 µM)	relative viability ([2]; first compound 0.08 µM)	relative viability ([2]; first compound 0.253 µM)	relative viability ([2]; first compound 0.8 µM)	relative viability ([2]; first compound 2.53 µM)	relative viability ([2]; first compound 8 µM)	relative viability ([3]; first compound 0.08 µM)	relative viability ([3]; first compound 0.253 µM)	relative viability ([3]; first compound 0.8 µM)	relative viability ([3]; first compound 2.53 µM)	relative viability ([3]; first compound 8 µM)	relative viability ([4]; first compound 0.08 µM)	relative viability ([4]; first compound 0.253 µM)	relative viability ([4]; first compound 0.8 µM)	relative viability ([4]; first compound 2.53 µM)	relative viability ([4]; first compound 8 µM)
NCI-H1666	0.72	0.616	0.453	0.558	0.879	1.04	1.01	1.1	1.03	0.761	0.753	0.705	0.798	0.705	0.713	1.03	1.06	1.1	0.895	0.635
EPLC-272H	0.789	0.893	0.947	0.939	0.91	0.265	0.301	0.179	0.288	0.221	0.163	0.149	0.2	0.188	0.127	1.04	0.853	0.923	1.19	0.906
NCI-H838	0.888	1.01	0.987	0.99	1.09	0.275	0.225	0.224	0.266	0.158	0.944	0.859	0.771	0.727	0.692	0.96	0.721	0.688	0.875	0.757
NCI-H2087	0.872	0.856	1.12	1.07	0.863	0.133	0.176	0.206	0.144	0.131	1.6	1.08	1.12	1.04	0.66	1.21	0.891	1	0.902	0.93
LC-2-ad	0.917	0.963	0.993	0.943	0.954	1.18	1.09	1.19	1.24	1	0.882	0.818	0.862	0.848	0.689	0.516	0.424	0.526	0.518	0.499
NCI-H2405	–	1.09	0.937	0.913	1.11	0.758	0.735	0.437	0.712	0.594	0.791	0.677	0.598	0.553	0.25	1.01	0.81	0.776	0.924	0.788
HCC-366	1.08	1.01	1.1	1.01	1	–	–	–	–	–	0.235	0.148	0.0505	0.056	0.0429	0.792	0.428	0.403	0.337	0.045
NCI-H3122	0.987	1.06	0.982	0.897	0.936	0.111	0.064	0.0908	0.0825	0.0706	1.05	0.857	0.97	0.654	0.545	0.283	0.281	0.32	0.356	0.331
NCI-H1650	0.704	0.767	0.666	0.806	0.748	0.204	0.19	0.25	0.211	0.172	–	–	–	–	–	1.03	1.08	0.896	0.873	0.478
HCC-78	0.278	0.646	0.667	0.701	0.746	–	–	–	–	–	0.679	0.626	0.5	0.58	0.392	0.344	0.368	0.338	0.352	0.336
COR-L23	0.93	0.802	0.901	0.986	1.02	0.835	0.651	0.633	0.342	0.446	–	–	–	–	–	0.731	0.76	0.695	0.726	0.562
SK-MES-1	0.498	0.475	0.404	0.484	0.499	1.09	0.797	0.746	0.537	0.306	–	–	–	–	–	1.07	0.93	0.924	0.95	0.896
NCI-H522	–	–	–	–	–	1.11	1.21	0.958	0.997	0.897	0.888	0.707	0.787	0.962	0.767	–	–	–	–	–
NCI-H1299	0.952	0.893	0.992	0.968	1	–	–	–	–	–	–	–	–	–	–	0.986	0.967	0.919	0.903	0.786
NCI-H661	0.464	0.488	0.534	0.483	0.493	0.88	0.944	0.958	0.914	0.803	–	–	–	–	–	1.08	0.942	1.05	0.997	1.06
NCI-H2228	1.16	1.19	1.03	1.05	1.02	0.125	0.165	0.131	0.132	0.0911	–	–	–	–	–	0.479	0.459	0.414	0.37	0.35
EBC-1	0.215	0.189	0.205	0.195	0.215	–	–	–	–	–	–	–	–	–	–	0.181	0.189	0.155	0.179	0.202
ChaGo-K-1	–	–	–	–	–	0.537	0.481	0.445	0.582	0.312	0.884	0.729	0.866	0.747	0.48	1.18	1.18	1	1.17	0.989
NCI-H2342	–	–	–	–	–	0.8	0.65	0.552	0.708	0.717	0.494	0.642	0.426	0.388	0.384	–	–	–	–	–

Cell Line	relative viability ([1]; first compound 0.08 µM)	relative viability ([1]; first compound 0.253 µM)	relative viability ([1]; first compound 0.8 µM)	relative viability ([1]; first compound 2.53 µM)	relative viability ([1]; first compound 8 µM)	relative viability ([2]; first compound 0.08 µM)	relative viability ([2]; first compound 0.253 µM)	relative viability ([2]; first compound 0.8 µM)	relative viability ([2]; first compound 2.53 µM)	relative viability ([2]; first compound 8 µM)	relative viability ([3]; first compound 0.08 µM)	relative viability ([3]; first compound 0.253 µM)	relative viability ([3]; first compound 0.8 µM)	relative viability ([3]; first compound 2.53 µM)	relative viability ([3]; first compound 8 µM)	relative viability ([4]; first compound 0.08 µM)	relative viability ([4]; first compound 0.253 µM)	relative viability ([4]; first compound 0.8 µM)	relative viability ([4]; first compound 2.53 µM)	relative viability ([4]; first compound 8 µM)
NCI-H2023	0.426	0.871	0.738	0.76	0.935	0.734	0.624	0.458	0.212	0.125	–	–	–	–	–	0.715	0.659	0.395	0.316	0.193
Calu-6	1.13	1.08	1.06	1.09	1.03	–	–	–	–	–	–	–	–	–	–	0.97	0.844	0.795	0.684	0.466
NCI-H1703	1.12	0.822	1.21	1.16	1.52	–	–	–	–	–	0.0991	0.11	0.14	0.119	0.1	1.04	0.578	0.688	0.336	0.248
SW 1573	0.974	1.08	1.14	0.959	1.18	0.21	0.228	0.214	0.226	0.165	–	–	–	–	–	0.944	0.675	0.636	0.963	0.855
NCI-H1563	0.849	0.878	0.901	0.892	0.966	0.56	0.499	0.491	0.509	0.338	–	–	–	–	–	1.02	0.781	0.751	0.694	0.695
LCLC-103H	–	–	–	–	–	1.1	0.925	0.898	0.947	0.718	0.829	0.758	0.705	0.758	0.632	1.08	1	0.998	1.08	1.1
NCI-H1623	–	–	–	–	–	0.588	0.473	0.605	0.509	0.505	–	–	–	–	–	–	–	–	–	–
COR-L 105	0.36	0.38	0.392	0.363	0.337	0.692	0.771	0.51	0.632	0.524	–	–	–	–	–	1.03	0.678	0.582	0.546	0.385
NCI-H441	–	–	–	–	–	0.289	0.386	0.602	0.307	0.363	1.28	0.966	0.93	0.69	0.478	1.21	0.791	0.866	0.927	0.723
NCI-H520	0.856	0.921	0.977	0.844	1.01	0.218	0.24	0.191	0.276	0.227	–	–	–	–	–	0.967	0.826	–	0.867	0.503
IA-LM	0.807	0.639	0.802	0.691	0.911	–	–	–	–	–	–	–	–	–	–	1.04	0.618	0.875	1.14	0.616
SW 900	–	–	–	–	–	0.199	0.187	0.156	0.167	0.152	0.673	0.506	0.391	0.437	0.351	–	–	–	–	–
NCI-H1648	–	–	–	–	–	–	–	–	–	–	0.582	–	0.49	0.473	0.319	–	–	–	–	–
NCI-H1793	–	0.667	0.658	0.671	0.676	0.155	0.234	0.175	0.162	0.121	0.381	0.267	–	0.252	0.214	–	–	–	–	–
SK-LU-1	0.769	0.887	0.991	0.776	0.884	0.177	0.203	0.193	0.203	0.164	–	–	–	–	–	0.788	0.863	0.884	0.591	0.387
NCI-H1395	1.06	0.899	0.855	0.927	1.18	0.7	0.677	0.704	0.636	0.525	0.379	0.391	0.369	0.366	0.362	–	–	–	–	–
A549	1.02	0.972	0.971	0.979	0.908	–	–	–	–	–	–	–	–	–	–	0.896	0.656	0.607	0.689	0.271
NCI-H2009	0.901	0.891	0.892	0.899	0.788	1.03	0.974	0.918	1.09	0.863	–	–	–	–	–	1.08	1.01	0.963	1.02	0.879
